According to ChEMBL document CHEMBL5500338, “Design, synthesis, and biological evaluation of piperazine derivatives as pan-PPARs agonists for the treatment of liver fibrosis” (Eur J Med Chem, 2024):
pEC50: −log10 of the molar value.

What was measured:
Type in all cases: cell-based
[1] = biological target: T1, Peroxisome proliferator-activated receptor gamma (Homo sapiens, UniProt P37231); assay: Agonist activity at human PPARgamma transfected in African green monkey COS-7 cells co-transfected with pGL4.35 and pBIND reporter gene plasmid assessed as receptor transactivation incubated for 16 hrs by luciferase reporter gene assay
T1 sequence (P37231 whole entry): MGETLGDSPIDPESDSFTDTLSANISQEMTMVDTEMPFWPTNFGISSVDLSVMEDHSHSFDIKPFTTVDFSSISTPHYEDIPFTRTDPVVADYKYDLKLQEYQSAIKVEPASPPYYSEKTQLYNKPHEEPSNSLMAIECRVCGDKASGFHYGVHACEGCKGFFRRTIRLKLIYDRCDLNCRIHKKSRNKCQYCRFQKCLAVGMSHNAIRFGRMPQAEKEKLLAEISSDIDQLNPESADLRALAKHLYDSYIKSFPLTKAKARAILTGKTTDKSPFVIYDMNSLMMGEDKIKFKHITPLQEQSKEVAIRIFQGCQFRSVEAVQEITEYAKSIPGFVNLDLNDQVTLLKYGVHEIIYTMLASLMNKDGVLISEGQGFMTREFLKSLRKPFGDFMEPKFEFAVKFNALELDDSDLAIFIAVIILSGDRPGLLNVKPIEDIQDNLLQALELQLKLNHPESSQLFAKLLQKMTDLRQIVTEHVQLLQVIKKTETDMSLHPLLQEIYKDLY

[2] = biological target: T2, Peroxisome proliferator-activated receptor delta (Homo sapiens, UniProt Q03181); assay: Agonist activity at human PPARdelta transfected in African green monkey COS-7 cells co-transfected with pGL4.35 and pBIND reporter gene plasmid assessed as receptor transactivation incubated for 16 hrs by luciferase reporter gene assay
T2 sequence (Q03181 whole entry): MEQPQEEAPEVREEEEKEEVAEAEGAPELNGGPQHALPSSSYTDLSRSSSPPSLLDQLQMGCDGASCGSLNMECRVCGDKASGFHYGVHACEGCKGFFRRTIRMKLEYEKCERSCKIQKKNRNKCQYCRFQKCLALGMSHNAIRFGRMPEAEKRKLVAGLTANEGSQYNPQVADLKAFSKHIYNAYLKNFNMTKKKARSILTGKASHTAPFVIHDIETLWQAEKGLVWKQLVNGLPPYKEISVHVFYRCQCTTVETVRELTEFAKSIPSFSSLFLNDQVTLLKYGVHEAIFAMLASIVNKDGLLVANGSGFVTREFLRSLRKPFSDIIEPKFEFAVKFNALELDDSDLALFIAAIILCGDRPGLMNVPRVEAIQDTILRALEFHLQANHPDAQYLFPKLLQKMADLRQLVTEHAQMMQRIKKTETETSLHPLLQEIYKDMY

[3] = biological target: T3, Peroxisome proliferator-activated receptor alpha (Homo sapiens, UniProt Q07869); assay: Agonist activity at human PPARalpha transfected in African green monkey COS-7 cells co-transfected with pGL4.35 and pBIND reporter gene plasmid assessed as receptor transactivation incubated for 16 hrs by luciferase reporter gene assay
T3 sequence (Q07869 whole entry): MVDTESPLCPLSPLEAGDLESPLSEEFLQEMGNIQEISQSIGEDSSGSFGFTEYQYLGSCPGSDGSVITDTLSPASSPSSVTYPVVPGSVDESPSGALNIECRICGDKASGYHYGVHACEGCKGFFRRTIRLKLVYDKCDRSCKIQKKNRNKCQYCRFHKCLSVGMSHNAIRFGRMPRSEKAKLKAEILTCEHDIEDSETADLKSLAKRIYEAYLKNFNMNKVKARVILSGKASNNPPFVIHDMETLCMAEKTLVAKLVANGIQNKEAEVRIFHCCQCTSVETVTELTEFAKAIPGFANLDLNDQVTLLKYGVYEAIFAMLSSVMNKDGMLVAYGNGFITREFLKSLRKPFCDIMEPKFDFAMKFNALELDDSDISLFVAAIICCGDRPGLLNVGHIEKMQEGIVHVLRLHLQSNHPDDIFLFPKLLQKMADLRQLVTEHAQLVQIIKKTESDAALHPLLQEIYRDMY

Structure (SMILES) | pEC50 [1] | pEC50 [2] | pEC50 [3]
Cc1c(CN2CCN(c3ccc(C(F)(F)F)cc3)CC2)ccc(OC(C)(C)C(=O)O)c1C | < 5.00 |  | 
Cc1cc(CN2CCN(c3ccc(F)cn3)CC2)cc(C)c1OC(C)(C)C(=O)O | 5.14 | < 5.00 | 
Cc1cc(CN2CCN(Cc3ccc(C(F)(F)F)cn3)CC2)cc(C)c1OC(C)(C)C(=O)O | 5.07 | 5.70 | 
Cc1ccc(N2CCN(Cc3cc(C)c(OC(C)(C)C(=O)O)c(C)c3)CC2)nc1 |  | < 5.00 | 
Cc1cc(CN2CCN(c3ccccn3)CC2)cc(C)c1OC(C)(C)C(=O)O |  | < 5.00 | 
Cc1cc(OC(C)(C)C(=O)O)ccc1CN1CCN(c2ccc(C(F)(F)F)cc2)CC1 |  |  | < 5.00
Cc1cc(CN2CCN(c3ccc(C(F)(F)F)cc3)CC2)ccc1OC(C)(C)C(=O)O | < 5.00 |  | 
CC(C)(Oc1ccc(CN2CCN(c3ccc(C(F)(F)F)cc3)CC2)cc1)C(=O)O | < 5.00 | 5.36 | 
CC(C)(Oc1ccc(CCNC(=O)c2ccc(Cl)cc2)cc1)C(=O)O [BEZAFIBRATE] | 4.88 | 4.30 | 
O=C(O)CCCc1cc2cc(Cl)ccc2n1S(=O)(=O)c1ccc2ncsc2c1 [LANIFIBRANOR] | 6.22 | 5.54 | 5.49

Other lines, results leading:

pEC50 [1] | pEC50 [2] | pEC50 [3] | Structure (SMILES)
 | < 5.00 |  | Cc1cc(CN2CCN(c3ncccc3C(F)(F)F)CC2)cc(C)c1OC(C)(C)C(=O)O
< 5.00 |  |  | Cc1cc(CN2CCN(c3ccc(C(F)(F)F)nc3)CC2)cc(C)c1OC(C)(C)C(=O)O
< 5.00 |  |  | Cc1cc(CN2CCN(Cc3ccc(C(F)(F)F)nc3)CC2)cc(C)c1OC(C)(C)C(=O)O
< 5.00 | 6.10 |  | Cc1cc(CN2CCN(c3ccc(C(F)(F)F)cc3)CC2)cc(C)c1OC(C)(C)C(=O)O
< 5.00 | 5.49 |  | Cc1cc(CN2CCN(c3cnc(C(F)(F)F)nc3)CC2)cc(C)c1OC(C)(C)C(=O)O
 | 6.10 |  | Cc1cc(CN2CCN(c3ncc(C(F)(F)F)cn3)CC2)cc(C)c1OC(C)(C)C(=O)O
